Key:
[1] = test system: obesity/diabetes mice (db/db mice); test: Effect upon hyperlipidemia and cardiovascular diseases in obesity/diabetes mouse model; assay type: in vivo; conditions: 14 days
Experimental: To investigate effects of macelignan upon the treatment of hyperlipidemia and cardiovascular diseases, seven mice of 10 week-aged obesity/diabetes mice (db/db mice) were used per test group. To the test groups, macelignan suspended in 0.25% carboxymethyl cellulose was orally administered in an administration dose of 5 mg/kg (body weight), 10 mg/kg (body weight) and 25 mg/kg (body weight), once per day at a predetermined time, for 14 days. As a control, 0.25% carboxymethyl cellulose was orally administered alone to normal mice in the same dose as administered to the test group. As another control, 0.25% carboxymethyl cellulose was orally administered alone to obesity/diabetes mice in the same dose as administered to the test group. As still another control, 10 mg/kg (body weight) of troglitazone was orally administered. Fourteen days after the administration, triglyceride concentration in blood (triglyceride measuring kit, Wako, Japan), free fatty acid concentration in blood (free fatty acid measuring kit, Wako, Japan), total cholesterol content in blood (ASAN T-CHO-Lq Reagents, Asan Pharmaceutical Co. Ltd., Korea), HDL-cholesterol content in blood (ASAN HDL-Cholesterol, Asan Pharmaceutical Co. Ltd., Korea), IL-6 content in blood (IL-6 Quantikine ELISA, R&D systems, USA) and TNF-α content in blood were measured for the test groups and the controls.

[2] = test system: target genes of PPARα (CD36, CPT-1, PDK4, ACO); test: Expression of target genes of PPARα in SK-HEP-1 liver cells (RT-PCR); assay type: cell-based; conditions: SK-HEP-1 cells, 1, 5, 10 and 25 μM, 24 hours, vs control
Experimental: SK-HEP-1 liver cells ([…]) cultured in a DMEM medium containing 10% FBS were pipetted into a multi-well plate in a cell count of 1×10^6 cells per well, and then further cultured for 5 hours. Different concentrations (1, 5, 10 and 25 μM) of macelignan were added to the medium of the cultured cells, and then the cells were left for 24 hours. The cells were collected and the total RNA was isolated by using TRIZOL (Invitrogen, USA). The total RNA isolated as described above was determined and cDNA was synthesized by using reverse transcriptase at 42° C. for 20 minutes with same amounts of RNA. The cDNA was subjected to RT-PCR by repeating 30 cycles of 95° C./1 minute, 56° C./30 seconds and 72° C./2 minutes with the following primers and Taq polymerase: primers for CD36 amplification (SEQ ID NO: 5(CGGCGATGAGAAAGCAGAA) and SEQ ID NO: 6(CAACCAGGCCCAGGAGC)), primers for CPT-1 amplification (SEQ ID NO: 7([…]) and SEQ ID NO: 8([…])), primers for PDK4 amplification (SEQ ID NO: 9([…]) and SEQ ID NO: 10(ATAAGTTAAGTGGGCCTGG)), and primers for ACO amplification (SEQ ID NO: 11([…]) and SEQ ID NO: 12([…])).

[3] = test system: target genes of PPARγ (LPL, PEPCK); test: Expression of target genes of PPARγ in 3T3-L1 pre-adipocytes (RT-PCR); assay type: cell-based, mouse; conditions: 3T3-L1 cells, 24 hours, then MDI medium two days, vs control
Experimental: 3T3-L1 mouse pre-adipocytes (ATCC CL-173) cultured in a DMEM medium containing 10% FBS were pipetted into a multi-well plate in a cell count of 1×10^6 cells per well, and then further cultured for 5 hours. To the medium of the cultured cells, 10 μM of macelignan was added and then left for 24 hours. Adipocyte differentiation was induced by substituting the medium of the cultured cells with MDI (0.5 mM 3-isobutyl-1-methylxanthine, 0.5 uM dexamethasone, 10 ug/ml insulin) medium (Am. J. Physiol. Cell Physiol., 280: C807-C813, 2001). Cells were collected two days after the substitution of MDI medium, and the total RNA was isolated by using TRIZOL (Invitrogen, USA). The total RNA isolated as described above was determined, and cDNA was synthesized by using reverse transcriptase at 42° C. for 20 minutes with same amount of RNA. The cDNA was subjected to RT-PCR by repeating 30 cycles of 95° C./1 minute, 56° C./30 seconds and 72° C./2 minutes with the following primers and Taq polymerase: primers for LPL amplification (SEQ ID NO: 13([…]) and SEQ ID NO: 14([…])), and primers for PEPCK amplification (SEQ ID NO: 15(CAGGCGGCTGAA GAAGTATGA) and SEQ ID NO: 16([…])).

[4] = test system: obesity/diabetes mice (db/db mice); test: Anti-obesity effect in obesity/diabetes mouse model; assay type: in vivo; conditions: for body weight / intramuscular triglyceride accumulation / white adipose tissue weight: 14th day, db/db mice
Experimental: To investigate the anti-obesity effect of macelignan, seven mice of 10 week-aged obesity/diabetes mice (db/db mice) were used per test group. To the test groups, macelignan suspended in […] carboxymethyl cellulose was orally administered in an administration dose of 5 mg/kg (body weight), 10 mg/kg (body weight) and 25 mg/kg (body weight), once per day at a predetermined time, for 14 days. As a control, 0.25% carboxymethyl cellulose was orally administered alone to normal mice in the same dose as administered to the test group. As another control, 0.25% carboxymethyl cellulose was orally administered alone to obesity/diabetes mice in the same dose as administered to the test group. As still another control, 10 mg/kg (body weight) of troglitazone was orally administered. From 6 days before the administration, diet intake and body weight of each obesity/diabetes mouse were measured once per three days. Additionally, on the 14th day after the oral administration, white adipose tissue weight and the amount of triglyceride accumulated in muscle cell were measured (Triglyceride measuring kit, Wako, No. 432-40201, Japan).

Q: What does the source list for COc1cc(C[C@H](C)[C@H](C)Cc2ccc3c(c2)OCO3)ccc1O (single isomer, unassigned) [macelignan]?
A: Free fatty acid in blood ([1]; 5 mg/kg oral): 1.26 ± 0.19 mEq/l; HDL-cholesterol in blood ([1]; 5 mg/kg oral): 43.5 ± 6.73 mg/dL; IL-6 in blood ([1]; 5 mg/kg oral): 21.42 ± 11.42 pg/mL; TNF-α in blood ([1]; 5 mg/kg oral): 36.92 ± 16.27 pg/mL; Total cholesterol in blood ([1]; 5 mg/kg oral): 119 ± 13.8 mg/dL; Triglyceride in blood ([1]; 5 mg/kg oral): 98.71 ± 36.62 mg/dL; Free fatty acid in blood ([1]; 10 mg/kg oral): 1.16 ± 0.31 mEq/l; HDL-cholesterol in blood ([1]; 10 mg/kg oral): 42.2 ± 7.29 mg/dL; IL-6 in blood ([1]; 10 mg/kg oral): 12.04 ± 5.47 pg/mL; TNF-α in blood ([1]; 10 mg/kg oral): 16.41 ± 9.60 pg/mL; Total cholesterol in blood ([1]; 10 mg/kg oral): 110 ± 15.2 mg/dL; Triglyceride in blood ([1]; 10 mg/kg oral): 91.71 ± 44.04 mg/dL; Free fatty acid in blood ([1]; 25 mg/kg oral): 1.14 ± 0.15 mEq/l; HDL-cholesterol in blood ([1]; 25 mg/kg oral): 46.6 ± 3.89 mg/dL; IL-6 in blood ([1]; 25 mg/kg oral): 4.86 ± 2.46 pg/mL; TNF-α in blood ([1]; 25 mg/kg oral): 27.54 ± 9.77 pg/mL; Total cholesterol in blood ([1]; 25 mg/kg oral): 110 ± 23.7 mg/dL; Triglyceride in blood ([1]; 25 mg/kg oral): 84.00 ± 31.24 mg/dL; mRNA expression of CD36, CPT-1, PDK-4 and ACO [2]: significantly increased; mRNA expression of LPL and PEPCK [3]: significantly increased; body weight ([4]; 5 mg/kg oral): 46.32 ± 2.31 g; intramuscular triglyceride accumulation ([4]; 5 mg/kg oral): 24.7 ± 4.74 mg; white adipose tissue weight ([4]; 5 mg/kg oral): 4230 ± 284 mg; body weight ([4]; 10 mg/kg oral): 43.8 ± 2.94 g; intramuscular triglyceride accumulation ([4]; 10 mg/kg oral): 22.8 ± 5.76 mg; white adipose tissue weight ([4]; 10 mg/kg oral): 3900 ± 279 mg; body weight ([4]; 25 mg/kg oral): 41.80 ± 1.56 g; intramuscular triglyceride accumulation ([4]; 25 mg/kg oral): 20.2 ± 3.82 mg; white adipose tissue weight ([4]; 25 mg/kg oral): 2690 ± 154 mg; diet intake ([4]; 5, 10 and 25 mg/kg oral, 14 days, test groups vs controls): no significant difference
